Test results from PMC10703426, “New characterization of dihydroergotamine receptor pharmacology in the context of migraine: utilization of a β-arrestin recruitment assay” (Frontiers in Neurology, 2023).
Entries after “also recorded” stand apart in the source; their conditions may differ. Where a name gives a salt, the structure may show the parent alone. Read-outs that look alike come from different tables or passages of the source.

Key:
D3 = conditions: IV DHE (53 ng/mL); cited from earlier work
[1] = 1 mg of IV DHE, cited from earlier work
5-HT1D = conditions: IV DHE (53 ng/mL); cited from earlier work
5-HT1B [2] = conditions: IV DHE (53 ng/mL); cited from earlier work
5-HT6 = conditions: IV DHE (53 ng/mL); cited from earlier work
D2S = conditions: IV DHE (53 ng/mL); cited from earlier work
CXCR7 [3] = target: T1, CXCR7 (Homo sapiens, UniProt P25106); assay: gpcrMAX PathHunter β-arrestin recruitment, agonist mode; assay type: cell-based; design: ProLink enzyme-donor fragment of β-galactosidase (own knowledge of the PathHunter design)
T1 sequence (P25106 whole entry, the tested form may be a part): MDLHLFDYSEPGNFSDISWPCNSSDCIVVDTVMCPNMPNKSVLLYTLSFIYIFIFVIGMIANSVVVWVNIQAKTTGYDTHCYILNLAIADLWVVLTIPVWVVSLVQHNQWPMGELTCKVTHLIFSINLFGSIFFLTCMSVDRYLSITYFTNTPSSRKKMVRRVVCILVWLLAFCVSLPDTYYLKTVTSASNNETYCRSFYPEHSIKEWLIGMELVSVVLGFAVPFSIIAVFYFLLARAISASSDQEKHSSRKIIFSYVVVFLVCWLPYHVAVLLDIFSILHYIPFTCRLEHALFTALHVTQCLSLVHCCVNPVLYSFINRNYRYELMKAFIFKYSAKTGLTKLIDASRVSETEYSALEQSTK
Method: PathHunter cell lines were expanded from freezer stocks according to standard procedures and cells were seeded in a total volume of 20 μL into white-walled, 384-well microplates in duplicate and incubated at 37°C prior to testing. […] Intermediate dilution (1% vehicle concentration) of sample stocks was performed to generate a 5× sample in assay buffer, of which 5 μL was added to the cells and incubated for 90 or 180 min at 37°C or room temperature, depending on the specific receptor, as established by manufacturer optimization protocols (see Supplementary Table 1). For antagonist activity, cells were preincubated with an antagonist for 30 min, followed by an agonist challenge at 80% of the maximal effective concentration (EC80). Intermediate dilution of sample stocks was performed to generate 5× sample in assay buffer, of which 5 μL was added to cells and incubated at 37°C or room temperature for 30 min. […] Microplates were read with a PerkinElmer EnVision (Shelton, CT) instrument for chemiluminescent signal detection.
Measurement of agonist and antagonist activity in the assay was calculated as percent activity of relative luminescence units (from positive control). Significance of agonist/antagonist activity was determined based upon prespecified criteria provided by Eurofins DiscoverX. […]

5-HT5A = conditions: IV DHE (53 ng/mL); cited from earlier work
α-adrenergic1 = conditions: IV DHE (53 ng/mL); cited from earlier work
CXCR7 [4] = target: T1, CXCR7; assay: Radioligand binding assay (as worded in the discussion); conditions: at concentrations <1.0 μM
5-HT7 = conditions: IV DHE (53 ng/mL); cited from earlier work
5-HT1B [5] = target: T2, 5-HT1B (Homo sapiens, UniProt P28222); assay: Radioligand competition binding, [3H]GR125743, Chem-1 cells
T2 construct: host or cells: Chem-1 cells
T2 sequence (P28222 whole entry): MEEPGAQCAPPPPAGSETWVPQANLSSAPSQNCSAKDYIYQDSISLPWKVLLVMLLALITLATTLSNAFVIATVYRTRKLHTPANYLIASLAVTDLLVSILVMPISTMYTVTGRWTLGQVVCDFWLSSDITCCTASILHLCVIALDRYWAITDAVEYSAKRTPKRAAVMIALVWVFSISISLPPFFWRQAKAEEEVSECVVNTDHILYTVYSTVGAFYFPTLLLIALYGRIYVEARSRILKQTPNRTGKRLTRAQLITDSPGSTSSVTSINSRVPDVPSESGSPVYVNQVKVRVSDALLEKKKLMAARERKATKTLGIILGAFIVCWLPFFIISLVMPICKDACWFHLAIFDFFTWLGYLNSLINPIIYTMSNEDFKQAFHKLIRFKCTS

human 5-HT1B = system: human 5-HT1B; design: method as in doi:10.1186/1129-2377-14-S1-P75; conditions: cited from earlier work
human 5-HT3 receptor = target: T3, human 5-HT3 receptor (Homo sapiens, UniProt P46098); assay: Radioligand competition binding, [3H]GR-65630, HEK-293 cell membranes
T3 construct: host or cells: HEK-293
T3 sequence (P46098 24-478): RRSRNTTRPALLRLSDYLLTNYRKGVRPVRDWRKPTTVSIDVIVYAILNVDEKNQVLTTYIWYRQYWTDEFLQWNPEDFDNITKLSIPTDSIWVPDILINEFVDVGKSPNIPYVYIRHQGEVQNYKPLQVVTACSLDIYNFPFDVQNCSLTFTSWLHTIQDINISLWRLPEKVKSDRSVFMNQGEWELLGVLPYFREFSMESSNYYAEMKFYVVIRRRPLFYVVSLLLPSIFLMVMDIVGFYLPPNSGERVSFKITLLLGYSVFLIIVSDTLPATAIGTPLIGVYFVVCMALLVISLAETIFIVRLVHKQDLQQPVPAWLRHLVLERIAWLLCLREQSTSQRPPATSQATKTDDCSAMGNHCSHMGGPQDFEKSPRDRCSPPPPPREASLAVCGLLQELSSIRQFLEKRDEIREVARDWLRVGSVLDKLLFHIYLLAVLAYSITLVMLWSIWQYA
Method: Nonspecific binding was determined in the presence of 10 μM MDL 72222. Following incubation, the samples were filtered rapidly under vacuum through glass fiber filters (GF/B, Packard; Kennesaw, GA) presoaked with 0.3% polyethyleneimine and rinsed several times with ice-cold 50 mM Tris–HCl using a 96-sample cell harvester (UniFilter, Packard). The filters were dried and then counted for radioactivity in a scintillation counter (TopCount, Packard) using a scintillation cocktail (MicroScint 0, Packard). Results are expressed as percent inhibition of the control radioligand–specific binding. The standard reference compound was MDL 72222, which was tested in each experiment at several concentrations to obtain a competition curve from which its half-maximal inhibitory concentration (IC50) was calculated.

5-HT2C = conditions: IV DHE (53 ng/mL); cited from earlier work
α-adrenergic2C = conditions: IV DHE (53 ng/mL); cited from earlier work
5-HT1A = conditions: IV DHE (53 ng/mL); cited from earlier work
[6] = 1.0 mg of IV DHE, phase 1 study, cited from earlier work
D5 = target: T4, D5 (Homo sapiens, UniProt P21918); assay: Radioligand competition binding, [3H]SCH 23390, GH4 cells
T4 construct: ProLink enzyme-donor fragment of β-galactosidase (own knowledge of the PathHunter design)
T4 sequence (P21918 whole entry, the tested form may be a part): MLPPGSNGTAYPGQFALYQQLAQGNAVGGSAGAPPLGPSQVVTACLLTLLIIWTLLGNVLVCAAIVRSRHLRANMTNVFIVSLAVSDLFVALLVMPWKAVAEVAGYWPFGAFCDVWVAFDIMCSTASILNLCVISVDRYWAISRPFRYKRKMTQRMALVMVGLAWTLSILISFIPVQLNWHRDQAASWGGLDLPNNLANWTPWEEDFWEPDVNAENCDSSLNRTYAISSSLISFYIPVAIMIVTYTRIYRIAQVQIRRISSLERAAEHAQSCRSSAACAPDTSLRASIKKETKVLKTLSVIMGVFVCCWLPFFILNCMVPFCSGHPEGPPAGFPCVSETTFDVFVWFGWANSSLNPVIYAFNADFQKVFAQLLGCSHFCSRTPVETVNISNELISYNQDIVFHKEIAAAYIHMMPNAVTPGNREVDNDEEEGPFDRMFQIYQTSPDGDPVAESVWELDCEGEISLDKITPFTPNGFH

human 5-HT4E receptor = target: T5, human 5-HT4E receptor (Homo sapiens, UniProt Q13639); assay: Radioligand competition binding, [3H]GR 113808, CHO cell membranes
T5 construct: host or cells: CHO
T5 sequence (Q13639 1-378 isoform Q13639-5): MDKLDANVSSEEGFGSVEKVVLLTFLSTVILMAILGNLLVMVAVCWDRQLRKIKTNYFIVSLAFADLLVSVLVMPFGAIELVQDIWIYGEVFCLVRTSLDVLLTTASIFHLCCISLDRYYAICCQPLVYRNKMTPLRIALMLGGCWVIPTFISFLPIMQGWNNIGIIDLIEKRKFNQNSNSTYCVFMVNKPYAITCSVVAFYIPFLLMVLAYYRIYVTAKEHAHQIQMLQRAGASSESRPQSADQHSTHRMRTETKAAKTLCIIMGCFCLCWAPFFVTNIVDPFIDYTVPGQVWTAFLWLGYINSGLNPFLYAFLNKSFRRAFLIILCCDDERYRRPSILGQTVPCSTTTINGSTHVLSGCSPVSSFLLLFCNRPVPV
Method: Nonspecific binding was determined in the presence of 100 μM serotonin. Following incubation, the same protocol as described above for 5-HT3 binding was employed. The standard reference compound for 5-HT4E binding is serotonin.

5-HT1B/1D receptors = system: 5-HT1B/1D receptors; design: method as in doi:10.1186/1129-2377-14-S1-P75; conditions: cited from earlier work
D1 = target: T6, D1 (Homo sapiens, UniProt P21728); assay: gpcrMAX PathHunter β-arrestin recruitment, antagonist mode; assay type: cell-based; conditions: 10 μM; >50% inhibition = antagonist
T6 construct: ProLink enzyme-donor fragment of β-galactosidase (own knowledge of the PathHunter design)
T6 sequence (P21728 whole entry, the tested form may be a part): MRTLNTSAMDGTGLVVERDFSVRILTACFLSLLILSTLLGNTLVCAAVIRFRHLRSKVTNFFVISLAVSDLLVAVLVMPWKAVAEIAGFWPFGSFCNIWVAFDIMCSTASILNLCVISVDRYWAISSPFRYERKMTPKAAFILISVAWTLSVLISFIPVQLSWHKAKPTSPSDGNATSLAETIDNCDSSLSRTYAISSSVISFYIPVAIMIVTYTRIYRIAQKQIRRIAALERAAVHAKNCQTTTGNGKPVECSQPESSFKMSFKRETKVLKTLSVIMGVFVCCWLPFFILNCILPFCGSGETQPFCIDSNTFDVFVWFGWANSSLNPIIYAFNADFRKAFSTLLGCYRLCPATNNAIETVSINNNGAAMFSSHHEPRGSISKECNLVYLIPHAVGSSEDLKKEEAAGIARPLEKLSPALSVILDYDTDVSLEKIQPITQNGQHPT
Method: PathHunter cell lines were expanded from freezer stocks according to standard procedures and cells were seeded in a total volume of 20 μL into white-walled, 384-well microplates in duplicate and incubated at 37°C prior to testing. […] Intermediate dilution (1% vehicle concentration) of sample stocks was performed to generate a 5× sample in assay buffer, of which 5 μL was added to the cells and incubated for 90 or 180 min at 37°C or room temperature, depending on the specific receptor, as established by manufacturer optimization protocols (see Supplementary Table 1). For antagonist activity, cells were preincubated with an antagonist for 30 min, followed by an agonist challenge at 80% of the maximal effective concentration (EC80). Intermediate dilution of sample stocks was performed to generate 5× sample in assay buffer, of which 5 μL was added to cells and incubated at 37°C or room temperature for 30 min. This was followed by an addition of 5 μL of 6× EC80 agonist in assay buffer to the cells, which were incubated at 37°C or room temperature for 90 or 180 min. Assay signal for agonist and antagonist modes was generated through a single addition of 12.5 or 15 μL (50% v/v) of PathHunter Detection reagent cocktail, followed by a 1-h incubation at room temperature. Further experimental details can be found in the Supplementary File. Microplates were read with a PerkinElmer EnVision (Shelton, CT) instrument for chemiluminescent signal detection.
Measurement of agonist and antagonist activity in the assay was calculated as percent activity of relative luminescence units (from positive control). Significance of agonist/antagonist activity was determined based upon prespecified criteria provided by Eurofins DiscoverX. In brief, receptor activity >30% was considered a significant agonist effect. Receptor inhibition >50% was considered a significant inhibitory effect. Please refer to the Supplementary File for more detail.
Samples were added to cells and incubated for 90 or 180 minutes at 37 °C or room temperature, depending on the specific receptor, as noted, with specific incubation protocols outlined in Supplemental Table 1. For antagonist activity, preincubation temperatures were performed at the temperatures specified in Supplemental Table 1, per target. Incubation with 6× EC80 agonist was determined by the assay manufacturer and selected in order to provide a challenge that was low enough to be below the saturation point, so as to not bias the results, while still at a high enough challenge concentration to yield a robust signal-to-noise ratio. Further information is available from Eurofins Discovery Services upon request.

For CN1C[C@H](C(=O)N[C@]2(C)O[C@@]3(O)[C@@H]4CCCN4C(=O)[C@H](Cc4ccccc4)N3C2=O)C[C@@H]2c3cccc4[nH]cc(c34)C[C@H]21 [DHE, Dihydroergotamine mesylate], the “receptor radioligand binding (active binding)” value (“receptor radioligand binding” below) (D3) is given as “X (An X denotes active binding)”, the “maximum plasma concentration (Cmax)” value [1] is given as 53 ng/mL and the Cmax ([1]; read-out: maximum plasma concentration (Cmax)) is given as ~91 nM. For the same compound, the “receptor radioligand binding” value (5-HT1D) was “X (An X denotes active binding)”, the “receptor radioligand binding” value (5-HT1B [2]) was “X (An X denotes active binding)” and the “receptor radioligand binding” value (5-HT6) was “X (An X denotes active binding)”. For the same compound, the “receptor radioligand binding” value (D2S) was “X (An X denotes active binding)”, the EC50 (CXCR7 [3]) was 6000 nM and the “DHE activity (screening)” value (CXCR7 [3]; 10 μM, >30% activity = agonist) was “Agonist”. The “receptor radioligand binding” value (5-HT5A) was “X (An X denotes active binding)”, the “receptor radioligand binding” value (α-adrenergic1) was “X (An X denotes active binding)” and the “DHE binding/activity at CXCR7” value (CXCR7 [4]) was “Additional notes • Radioligand binding assays reported here did not show DHE binding at concentrations <1.0 μM; therefore, agonist activity of DHE on CXCR7 is unlikely in clinically relevant conditions”. The “receptor radioligand binding” value (5-HT7) was “X (An X denotes active binding)”, the IC50 (5-HT1B [5]) was 0.58 nM and the dissociation half-life (human 5-HT1B) was 1.38 h. For the same compound, the IC50 (human 5-HT3 receptor) was > 300 nM, the “binding to the 5-HT3 receptor” value (human 5-HT3 receptor; at concentrations up to 300 nM) was “did not bind; also recorded: did not exhibit binding” and the “receptor radioligand binding” value (5-HT2C) was “X (An X denotes active binding)”. For the same compound, the “receptor radioligand binding” value (α-adrenergic2C) was “X (An X denotes active binding)”, the “receptor radioligand binding” value (5-HT1A) was “X (An X denotes active binding)” and the “Human plasma Cmax” value [6] was 14.2 ng/mL. For the same compound, the Cmax ([6]; read-out: Human plasma Cmax) was ~24 nM, the IC50 (D5) was 370 nM and the IC50 (human 5-HT4E receptor) was 230 nM. For the same compound, the “time bound to the receptors longer than sumatriptan” value (5-HT1B/1D receptors; 5-HT1B and 5-HT1D) was 8 to 14 h, the “dissociation half-lives, times longer than those of sumatriptan” value (5-HT1B/1D receptors; human 5-HT1B and 5-HT1D) was “approximately 10 times” and the “DHE activity (screening)” value (D1) was “Antagonist”.
